Data as given in patent publication US10647675B2 (priority 2015, dated 2020).
In brackets after ≈: the same amount, converted by molar mass.

Experiments:
[1] = test system: Trichophyton mentagrophytes SM-110; assay: Antifungal activity evaluation test: minimum inhibitory concentration (MIC), broth dilution by reference to CLSI M38-A2; type: cell-based; conditions: SM110, read-out: MIC (T. menta.)
Outline: (§1)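 Broth microdilution after CLSI M38-A2: 2-fold DMSO dilution series in MOPS-buffered RPMI 1640 pH 7.0, inoculum 2×10^3 cells/mL final. Incubated 35° C for 4 days; MIC (μg/mL) is lowest concentration giving visually ≥80% growth inhibition versus growth control.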

[2] = test system: Trichophyton rubrum KD-1130; assay: as above; type: cell-based; conditions: KD1130, read-out: MIC (T. rubrum)
Outline: as §1

Row | SMILES | MIC [1] | MIC [2]
1 | COc1cc(F)ccc1-c1cccnc1Oc1cnc(C(F)F)c(C)c1 [I-121, 2-(difluoromethyl)-5-{[3-(4-fluoro-2-methoxyphenyl)pyridin-2-yl]oxy}-3-methylpyridine] | ≤ 0.1 µg/mL | ≤ 0.1 µg/mL
2 | Cc1cc(Oc2ncncc2-c2cccc3c2OCC3)cnc1C(F)F [I-324] | ≤ 0.1 µg/mL | ≤ 0.1 µg/mL
3 | Cc1nc(C)c(-c2cccnc2Oc2ccc(C(F)(F)F)cc2)s1 [I-342] | 0.2 to 0.78 µg/mL (≈ 0.571 to 2.23 µM) | 0.2 to 0.78 µg/mL (≈ 0.571 to 2.23 µM)
4 | COc1cc(-c2cccnc2Oc2ccc(C(F)F)nc2)c(F)cc1F [I-77, 3-(2,4-difluoro-5-methoxyphenyl)-2-{[6-(difluoromethyl)pyridin-3-yl]oxy}pyridine] | ≤ 0.1 µg/mL | ≤ 0.1 µg/mL
5 | COc1ccccc1-c1cccnc1Oc1ccc(CNc2ccccc2)nc1 [I-371, N-[(5-{[3-(2-methoxyphenyl)pyridin-2-yl]oxy}pyridin-2-yl)methyl]aniline] | ≤ 0.1 µg/mL | ≤ 0.1 µg/mL
6 | COc1cc(F)ccc1-c1cccnc1Oc1cnc(C(F)(F)F)c(C)c1 [I-118, 5-{[3-(4-fluoro-2-methoxyphenyl)pyridin-2-yl]oxy}-3-methyl-2-(trifluoromethyl)pyridine] | ≤ 0.1 µg/mL | ≤ 0.1 µg/mL
7 | Cn1nc(-c2cccnc2Oc2ccc(C(F)(F)F)nc2)c2cccnc21 [I-47, 1-methyl-3-(2-{[6-(trifluoromethyl)pyridin-3-yl]oxy}pyridin-3-yl)-1H-pyrazolo[3,4-b]pryidine] | 1.56 to 6.25 µg/mL (≈ 4.2 to 16.8 µM) | 1.56 to 6.25 µg/mL (≈ 4.2 to 16.8 µM)
8 | COCc1ccc(Oc2ncccc2-c2cnccc2OC)cc1 [I-251, 4′-methoxy-2-[4-(methoxymethyl)phenoxy]-3,3′-bipyridine] | 1.56 to 6.25 µg/mL (≈ 4.84 to 19.4 µM) | 1.56 to 6.25 µg/mL (≈ 4.84 to 19.4 µM)
9 | Cc1nsc(-c2cccnc2Oc2ccc(C(F)(F)F)nc2)c1Br [I-377, 4-bromo-3-methyl-5-(2-{[6-(trifluoromethyl)pyridin-3-yl]oxy}pyridin-3-yl)isothiazole] | ≤ 0.1 µg/mL | ≤ 0.1 µg/mL
10 | FC1(F)Oc2cccc(-c3cccnc3Oc3ccc(C(F)(F)F)nc3)c2O1 [I-39, 3-(2,2-difluorobenzo[1,3]dioxol-4-yl)-2-{[6-(trifluoromethyl)pyridin-3-yl]oxy}pyridine] | ≤ 0.1 µg/mL | 0.2 to 0.78 µg/mL (≈ 0.505 to 1.97 µM)
11 | CC(F)(F)c1ccc(Oc2ncccc2-c2cccc3ccnn23)cn1 [I-115, 7-(2-{[6-(1,1-difluoroethyl)pyridin-3-yl]oxy}pyridin-3-yl)pyrazolo[1,5-a]pyridine] | ≤ 0.1 µg/mL | ≤ 0.1 µg/mL
12 | CCc1ccc(Oc2ncccc2-c2cncc(C(F)F)c2OC)cc1 [I-288, 5′-(difluoromethyl)-2-(4-ethylphenoxy)-4′-methoxy-3,3′-bipyridine] | ≤ 0.1 µg/mL | ≤ 0.1 µg/mL
13 | CCOCC(C)(C)c1ccc(Oc2ncccc2-c2cccnc2OC)cc1 [I-388, 2-[4-(1-ethoxy-2-methylpropan-2-yl)phenoxy]-2′-methoxy-3,3′-bipyridine] | ≤ 0.1 µg/mL | ≤ 0.1 µg/mL
14 | FC(F)(F)c1ccc(Oc2ncccc2-c2cccc3cnccc23)cn1 [I-33, 5-(2-{[6-(trifluoromethyl)pyridin-3-yl]oxy}pyridin-3-yl)isoquinoline] | 1.56 to 6.25 µg/mL (≈ 4.25 to 17 µM) | 1.56 to 6.25 µg/mL (≈ 4.25 to 17 µM)
15 | COc1ccc(Cl)cc1-c1cccnc1Oc1ccc(C(F)(F)F)nc1 [I-23, 3-(5-chloro-2-methoxyphenyl)-2-{[6-(trifluoromethyl)pyridin-3-yl]oxy}pyridine] | ≤ 0.1 µg/mL | ≤ 0.1 µg/mL
16 | Cc1cnccc1-c1cccnc1Oc1ccc(C(F)(F)F)cc1 [I-205] | ≤ 0.1 µg/mL | ≤ 0.1 µg/mL
17 | FC(F)(F)c1ccc(Oc2ncccc2-c2ccccc2Br)cn1 [I-5, 3-(2-bromophenyl)-2-{[6-(trifluoromethyl)pyridin-3-yl]oxy}pyridine] | 0.2 to 0.78 µg/mL (≈ 0.506 to 1.97 µM) | ≤ 0.1 µg/mL
18 | COc1ccccc1-c1cccnc1Oc1ccc(C=O)nc1 [I-71, 5-{[3-(2-methoxyphenyl)pyridin-2-yl]oxy}picolinaldehyde] | 1.56 to 6.25 µg/mL (≈ 5.09 to 20.4 µM) | 1.56 to 6.25 µg/mL (≈ 5.09 to 20.4 µM)
19 | COc1ccccc1-c1cncnc1Oc1ccc(C(F)(F)F)cc1 [I-321, 5-(2-methoxyphenyl)-4-[4-(trifluoromethyl)phenoxy]pyrimidine] | ≤ 0.1 µg/mL | ≤ 0.1 µg/mL
20 | C#CCCc1ccc(Oc2ncccc2-c2cccnc2OC)cc1 [I-407, 2-[4-(but-3-yn-1-yl)phenoxy]-2′-methoxy-3,3′-bipyridine] | ≤ 0.1 µg/mL | ≤ 0.1 µg/mL
21 | COc1cccc(-c2cccnc2Oc2ccc(C(F)(F)F)cc2)n1 [I-213, 6-methoxy-2′-[4-(trifluoromethyl)phenoxy]-2,3′-bipyridine] | ≤ 0.1 µg/mL | ≤ 0.1 µg/mL
22 | COc1ccccc1-c1cncnc1Oc1ccc(C(F)F)c(C)c1 [I-323, 4-[4-(difluoromethyl)-3-methylphenoxy]-5-(2-methoxyphenyl)pyrimidine] | ≤ 0.1 µg/mL | ≤ 0.1 µg/mL
23 | COc1c(F)cncc1-c1cccnc1Oc1ccc(C(F)(F)F)cc1 [I-212, 5′-fluoro-4′-methoxy-2-[4-(trifluoromethyl)phenoxy]-3,3′-bipyridine] | ≤ 0.1 µg/mL | ≤ 0.1 µg/mL

Row | SMILES | MIC [1] | MIC [2]
24 | CCc1cc(Oc2ncccc2-c2cnccc2OC)ccc1C [I-264, 2-(3-ethyl-4-methylphenoxy)-4′-methoxy-3,3′-bipyridine] | ≤ 0.1 µg/mL | ≤ 0.1 µg/mL
25 | COc1ccccc1-c1cncnc1Oc1ccc(C(F)(F)F)nc1 [I-310, 5-(2-methoxyphenyl)-4-{[6-(trifluoromethyl)pyridin-3-yl]oxy}pyrimidine] | ≤ 0.1 µg/mL | ≤ 0.1 µg/mL
26 | Cc1ccncc1-c1cccnc1Oc1ccc(-c2ncccn2)cc1 [I-429] | ≤ 0.1 µg/mL | ≤ 0.1 µg/mL
27 | CCc1ccc(Oc2ncccc2-c2ccncc2OC)cc1 [I-281, 2-(4-ethylphenoxy)-3′-methoxy-3,4′-bipyridine] | ≤ 0.1 µg/mL | ≤ 0.1 µg/mL
28 | COCC(F)(F)c1ccc(Oc2ncccc2-c2cc(Cl)ccc2OC)cn1 [I-163, 3-(5-chloro-2-methoxyphenyl)-2-{[6-(1,1-difluoro-2-methoxyethyl)pyridin-3-yl]oxy}pyridine] | ≤ 0.1 µg/mL | ≤ 0.1 µg/mL
29 | Cc1ccncc1-c1cccnc1Oc1ccc(C(F)(F)F)cc1 [I-206, 4′-methyl-2-[4-(trifluoromethyl)phenoxy]-3,3′-bipyridine] | ≤ 0.1 µg/mL | ≤ 0.1 µg/mL
30 | CC(=O)CC(=O)c1ccc(Oc2ncccc2-c2cnccc2C)cc1 [I-424] | 0.2 to 0.78 µg/mL (≈ 0.577 to 2.25 µM) | ≤ 0.1 µg/mL
31 | COc1cc(F)c(F)cc1-c1cncnc1Oc1ccc(C(F)(F)F)nc1 [I-328, 5-(4,5-difluoro-2-methoxyphenyl)-4-{[6-(trifluoromethyl)pyridin-3-yl]oxy}pyrimidine] | ≤ 0.1 µg/mL | ≤ 0.1 µg/mL
32 | COc1cc(F)ccc1-c1cccnc1Oc1ccc(C(F)(F)CO)nc1 [I-154, 2,2-difluoro-2-(5-{[3-(4-fluoro-2-methoxyphenyl)pyridin-2-yl]oxy}pyridin-2-yl)-ethanol] | 0.2 to 0.78 µg/mL (≈ 0.531 to 2.07 µM) | 0.2 to 0.78 µg/mL (≈ 0.531 to 2.07 µM)
33 | COc1ncccc1-c1cccnc1Oc1ccc(C(C)C)cc1 [I-447] | ≤ 0.1 µg/mL | ≤ 0.1 µg/mL
34 | Fc1cncc(-c2cccnc2Oc2ccc(C(F)(F)F)cc2)c1Cl [I-207, 4′-chloro-5′-fluoro-2-[4-(trifluoromethyl)phenoxy]-3,3′-bipyridine] | ≤ 0.1 µg/mL | ≤ 0.1 µg/mL
35 | c1cnc(Oc2cnc3c(c2)CCCC3)c(-c2cccc3c2OCC3)c1 [I-137, 3-{[3-(2,3-dihydrobenzyofuran-7-yl)pyridin-2-yl]oxy}-5,6,7,8-tetrahydroquinoline] | ≤ 0.1 µg/mL | ≤ 0.1 µg/mL
36 | CCc1cccc(Oc2ncccc2-c2cnccc2OC)c1 [I-265, 2-(3-ethylphenoxy)-4′-methoxy-3,3′-bipyridine] | 0.2 to 0.78 µg/mL (≈ 0.653 to 2.55 µM) | 0.2 to 0.78 µg/mL (≈ 0.653 to 2.55 µM)
37 | COc1ccncc1-c1cccnc1Oc1ccc(C(C)(F)F)cc1 [I-297, 2-[4-(1,1-difluoroethyl)-phenoxy]-4′-methoxy-3,3′-bipyridine] | ≤ 0.1 µg/mL | ≤ 0.1 µg/mL
38 | COC(=O)N(C)CC(F)(F)c1ccc(Oc2ncccc2-c2ccccc2OC)cn1 [I-152, methyl [2,2-difluoro-2-(5-{[3-(2-methoxyphenyl)pyridin-2-yl]oxy}pyridin-2-yl)ethyl](methyl)carbamate] | 0.2 to 0.78 µg/mL (≈ 0.466 to 1.82 µM) | 0.2 to 0.78 µg/mL (≈ 0.466 to 1.82 µM)
39 | CCOC(=O)CN(C)c1ncc(Oc2ncccc2-c2ccc(F)cc2OC)cn1 [I-386, ethyl 2-[(5-{[3-(4-fluoro-2-methoxyphenyl)pyridin-2-yl]oxy}-pyrimidin-2-yl)(methyl)amino]acetate] | ≤ 0.1 µg/mL | ≤ 0.1 µg/mL
40 | COc1ncccc1-c1cccnc1Oc1ccc(CCn2cc(C)cn2)cc1 [I-401, 2-methoxy-2′-{4-[2-(4-methyl-1H-pyrazol-1-yl)ethyl]phenoxy}-3,3′-bipyridine] | ≤ 0.1 µg/mL | ≤ 0.1 µg/mL
41 | COc1ccc(F)c(-c2cccnc2Oc2ccc(C(F)F)nc2)c1 [I-74, 2-{[6-(difluoromethyl)pyridin-3-yl]oxy}-3-(2-fluoro-5-methoxyphenyl)pyridine] | ≤ 0.1 µg/mL | ≤ 0.1 µg/mL
42 | FC(F)(F)c1ccc(Oc2ncccc2-c2cccc3ncnn23)cc1 [I-230, 5-{2-[4-(trifluoromethyl)phenoxy]pyridin-3-yl}[1,2,4]triazolo[1,5-a]pyridine] | 0.2 to 0.78 µg/mL (≈ 0.561 to 2.19 µM) | 0.2 to 0.78 µg/mL (≈ 0.561 to 2.19 µM)
43 | COCC(F)(F)c1ccc(Oc2ncccc2-c2cnccc2OC)cn1 [I-349, 2-{[6-(1,1-difluoro-2-methoxyethyl)pyridin-3-yl]oxy}-4′-methoxy-3,3′-bipyridine] | 1.56 to 6.25 µg/mL (≈ 4.18 to 16.7 µM) | 1.56 to 6.25 µg/mL (≈ 4.18 to 16.7 µM)
44 | COC(=O)CCc1ccc(Oc2ncccc2-c2cnccc2OC)cc1 [I-279, methyl 3-(4-{[4′-methoxy-3,3′-bipyridin-2-yl]oxy}phenyl)propionate] | 0.2 to 0.78 µg/mL (≈ 0.549 to 2.14 µM) | 0.2 to 0.78 µg/mL (≈ 0.549 to 2.14 µM)
45 | COc1ccccc1-c1cccnc1Oc1cnc2c(c1)CCCCC2 [I-136, 3-{[3-(2-methoxyphenyl)pyridin-2-yl]oxy}-6,7,8,9-tetrahydro-5H-cyclohepta[b]pyridine] | ≤ 0.1 µg/mL | ≤ 0.1 µg/mL
46 | COc1cc(F)ccc1-c1cccnc1Oc1ccc(C(F)F)nc1 [I-73, 2-{[6-(difluoromethyl)pyridin-3-yl]oxy}-3-(4-fluoro-2-methoxyphenyl)pyridine] | ≤ 0.1 µg/mL | ≤ 0.1 µg/mL
